According to PubChem BioAssay (NCI):
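Grown in 96-well plates, cells were treated for 48 hours with each compound at five concentrations. Insufficient inhibition: endpoint recorded as highest concentration tested. GI50 marks 50% less growth. The concentration for full growth arrest is given as TGI.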

Legend:
Experiment in all cases: NCI tumour cell line growth inhibition, 48 h
[1] = test system: OVCAR-5 ovarian
[2] = test system: NCI-H522 lung
[3] = test system: SW-620 colon
[4] = test system: TK-10 renal
[5] = test system: PC-3 prostate
[6] = test system: SNB-19 CNS
[7] = test system: HCT-116 colon
[8] = test system: MDA-MB-435
[9] = test system: CAKI-1 renal
[10] = test system: HT29 colon
[11] = test system: BT-549 breast
[12] = test system: OVCAR-4 ovarian
[13] = test system: SR leukemia
[14] = test system: M14 melanoma
[15] = test system: KM12 colon
[16] = test system: A549 NSCLC
[17] = test system: SNB-75 CNS
[18] = test system: A498 renal
[19] = test system: MALME-3M melanoma
[20] = test system: UACC-257 melanoma
[21] = test system: OVCAR-3 ovarian
[22] = test system: UO-31 renal
[23] = test system: IGROV1 ovarian
[24] = test system: SN12C renal
[25] = test system: 786-0 renal
[26] = test system: HL-60(TB) leukemia
[27] = test system: RXF 393 renal
[28] = test system: MCF7 breast
[29] = test system: COLO 205 colon
[30] = test system: HOP-62 NSCLC
[31] = test system: NCI-H226 lung
[32] = test system: HS 578T breast
[33] = test system: SF-295 CNS
[34] = test system: CCRF-CEM leukemia
[35] = test system: ACHN renal
[36] = test system: RPMI-8226 leukemia
[37] = test system: SF-268 CNS
[38] = test system: SF-539 CNS
[39] = test system: HCC-2998 colon
[40] = test system: OVCAR-8 ovarian
[41] = test system: MDA-MB-468 breast
[42] = test system: U251 CNS
[43] = test system: SK-MEL-2 melanoma
[44] = test system: SK-OV-3 ovarian
[45] = test system: LOX IMVI melanoma
[46] = test system: EKVX NSCLC
[47] = test system: DU-145 prostate
[48] = test system: HOP-92 NSCLC
[49] = test system: UACC-62 melanoma
[50] = test system: NCI/ADR-RES ovarian
[51] = test system: MOLT-4 leukemia
[52] = test system: SK-MEL-5 melanoma
[53] = test system: MDA-MB-231 breast
[54] = test system: SK-MEL-28 melanoma
[55] = test system: HCT-15 colon
[56] = test system: T-47D breast
[57] = test system: NCI-H23 lung

`Nc1cc(-c2c[nH]c3ccc(Br)cc23)nc2cc(-c3c[nH]c4ccccc34)nn12` gave a GI50 [1] of 2.08 µM, a TGI [1] of 5.36 µM and a GI50 [2] of 1.68 µM. It also gave a TGI [2] of 3.51 µM, a GI50 [3] of 1.87 µM and a TGI [3] of 3.7 µM. For the same compound, the GI50 [4] was 2.56 µM, the TGI [4] was 12 µM and the GI50 [5] was 2.57 µM. It also gave a TGI [5] of 8.4 µM, a GI50 [6] of 3.67 µM and a TGI [6] of 14.1 µM. It also gave a GI50 [7] of 1.77 µM, a TGI [7] of 3.39 µM and a GI50 [8] of 2.95 µM. The TGI [8] was 9.98 µM, the GI50 [9] was 2.2 µM and the TGI [9] was 7.33 µM. It also gave a GI50 [10] of 1.98 µM, a TGI [10] of 4.08 µM and a GI50 [11] of 9.32 µM. For the same compound, the TGI [11] was 21.8 µM, the GI50 [12] was 3.97 µM and the TGI [12] was 19 µM. It also gave a GI50 [13] of 2.23 µM, a TGI [13] greater than 100 µM and a GI50 [14] of 2.09 µM. The TGI [14] was 5.05 µM, the GI50 [15] was 2.21 µM and the TGI [15] was 5.31 µM. The GI50 [16] was 2.91 µM, the TGI [16] was 11.5 µM and the GI50 [17] was 2.17 µM. For the same compound, the TGI [17] was 11.3 µM, the GI50 [18] was 2.42 µM and the TGI [18] was 7.74 µM. The GI50 [19] was 1.91 µM, the TGI [19] was 3.64 µM and the GI50 [20] was 3.86 µM. It also gave a TGI [20] of 15.1 µM, a GI50 [21] of 3.44 µM and a TGI [21] of 14 µM. The GI50 [22] was 2.74 µM, the TGI [22] was 11.8 µM and the GI50 [23] was 3.55 µM. For the same compound, the TGI [23] was 14.6 µM, the GI50 [24] was 4.03 µM and the TGI [24] was 16.4 µM. For the same compound, the GI50 [25] was 1.63 µM, the TGI [25] was 3.54 µM and the GI50 [26] was 2.84 µM. The TGI [26] was 12.7 µM, the GI50 [27] was 2.66 µM and the TGI [27] was 7.87 µM. It also gave a GI50 [28] of 2.05 µM, a TGI [28] of 5 µM and a GI50 [29] of 1.73 µM. For the same compound, the TGI [29] was 3.33 µM, the GI50 [30] was 3.52 µM and the TGI [30] was 12.2 µM. For the same compound, the GI50 [31] was 6.13 µM, the TGI [31] was 41.4 µM and the GI50 [32] was 3.11 µM. The TGI [32] was 9.62 µM, the GI50 [33] was 1.9 µM and the TGI [33] was 4.01 µM. For the same compound, the GI50 [34] was 3.05 µM, the TGI [34] was 13.2 µM and the GI50 [35] was 2.77 µM. It also gave a TGI [35] of 9.2 µM, a GI50 [36] of 2.88 µM and a TGI [36] of 9.09 µM. The GI50 [37] was 3.72 µM, the TGI [37] was 18.5 µM and the GI50 [38] was 1.74 µM. For the same compound, the TGI [38] was 3.38 µM, the GI50 [39] was 1.85 µM and the TGI [39] was 3.61 µM. It also gave a GI50 [40] of 4.06 µM, a TGI [40] of 18.1 µM and a GI50 [41] of 1.75 µM. For the same compound, the TGI [41] was 4.13 µM, the GI50 [42] was 2 µM and the TGI [42] was 4.57 µM. It also gave a GI50 [43] of 2.44 µM, a TGI [43] of 7.13 µM and a GI50 [44] of 7.75 µM. For the same compound, the TGI [44] was 21 µM, the GI50 [45] was 1.69 µM and the TGI [45] was 3.07 µM. The GI50 [46] was 2.92 µM, the TGI [46] was 10.9 µM and the GI50 [47] was 3.88 µM. It also gave a TGI [47] of 14.4 µM, a GI50 [48] of 2.06 µM and a TGI [48] of 6.08 µM. For the same compound, the GI50 [49] was 1.88 µM, the TGI [49] was 4.35 µM and the GI50 [50] was 3.33 µM. The TGI [50] was 13.3 µM, the GI50 [51] was 2.4 µM and the TGI [51] was 6.72 µM. It also gave a GI50 [52] of 2.7 µM, a TGI [52] of 7.62 µM and a GI50 [53] of 1.9 µM. The TGI [53] was 3.63 µM, the GI50 [54] was 2.23 µM and the TGI [54] was 5.71 µM. For the same compound, the GI50 [55] was 1.74 µM, the TGI [55] was 3.62 µM and the GI50 [56] was 3.15 µM. The TGI [56] was 20.3 µM, the GI50 [57] was 2.36 µM and the TGI [57] was 6.64 µM.
